Measured values taken from patent US11154529B2, “Phosphaplatin liquid formulations” (Phosplatin Therapeutics Inc., priority 2016, dated 2021).

Experiment: Ready-to-use formulation stability at 25° C./60% RH, 5 mg/mL (R,R)-pyrodach-2 in 10 mM Potassium Phosphate Buffer at pH 7.2, 10 mL vials
Type: physicochemical
Procedure: A scalable and commercially viable process for the manufacture of a ready-to-use formulation of (R,R)-pyrodach-2 in 10 mM buffer adjusted to a pH of 7.0-7.5 comprises the steps of: a) preparing a 10 mM aqueous solution of buffer; b) adding sufficient hydroxide base to effect neutralization of the added (R,R)-pyrodach-2 to reach a pH of about 7; c) adding (R,R)-pyrodach-2 and allowing it to dissolve; d) if necessary adding additional hydroxide to adjust the pH into a range of about 7.0-7.5; and e) filtering the solution under sterile conditions, filling the solution into glass vials, and covering it with a stopper and/or a cap. Stability data on two large batches of 5 mg/mL (R,R)-pyrodach-2 in 10 mM potassium phosphate buffer were generated. One such batch at pH=7.2 was evaluated at both 25° C./60% RH and refrigerated (2-8° C.) conditions, with data summarized in Table 4 and Table 5, respectively. […] Similar observations have been made for the ready-to-use liquid formulation at pH7.4, as illustrated in Table 6 and Table 7.
• Transfer 4564.6 mg±0.5 mg of potassium phosphate dibasic, trihydrate to a 2-L volumetric flask. • Fill flask to approximately 75% volume with water, swirl as needed to dissolve all solids. • Volumetrically transfer 32.0 mL of 1N KOH to flask. • Dilute flask to volume with water and mix well. • Record pH of final solution. This is the diluent. • Transfer 7653.1 mg±0.5 mg of (R,R)-pyrodach-2 to a compounding vessel. • Transfer 1500 mL of the diluent to the vessel and stir to dissolve solids. • Record pH of final solution. • Pass entire solution through a 0.22 μm sterile filter membrane into a sterile collection vessel. • Calculate (R,R)-pyrodach-2 solution concentration
To a […] glass beaker equipped with mechanical mixer was add 24645.5 g of sterile water for injection. With agitation 47.03 gm of dibasic potassium phosphate USP was added and the solids allowed to dissolve. To the stirred solution was added 253.8 gm of 1.00 N potassium hydroxide. Sterile water for injection USP (900.0 gm) was used as a rinse to facilitate both additions. With vigorous agitation, (R,R)-pyrodach-2 (201.87 gm) was slowly added and agitation continued until all of the solids dissolved. Sterile water for injection USP (900.0 gm) was used as a rinse to facilitate the addition. The pH was determined to be 6.7. A total of 85 mL of 1.00 N potassium hydroxide was added in 5.0 mL aliquots to adjust the pH to 7.3. The solution was sterile filtered through 0.22μ Millipore Millipack filter and aseptically filled, 10 ml top a vial in 10 mL in 10 cc Wheaton clear molded vails, stoppered with a 20 mm stopper and crimp seal capped.

## O=P1(O)OP(=O)(O)[O][Pt]2([NH][C@@H]3CCCC[C@H]3[NH]2)[O]1 (stereo partly drawn) [(R,R)-pyrodach-2, (R,R)-trans-1,2-cyclohexanediamine-(dihydrogenpyrophosphato)platinum(II)]
1 Month
  (DACH) Pt-diaquo (~RRT 0.3): 0.15%
  (DACH) Pt-monoaquo (~RRT 0.7): 0.75%
  Assay (Potency): 96.5%
  PT-112 Dimer (~RRT 4.0): 0.33%
  RRT 0.58: 0.13%
  RRT 0.67: 0.06%
  RRT 3.1-3.2: 0.22%
  Total Related Substances: 2%
  pH: 7.2
2 Month
  (DACH) Pt-diaquo (~RRT 0.3): 0.09%
  (DACH) Pt-monoaquo (~RRT 0.7): 0.96%
  Assay (Potency): 99.5%
  PT-112 Dimer (~RRT 4.0): 0.36%
  RRT 0.50: 0.05%
  RRT 0.58: 0.15%
  RRT 0.67: 0.09%
  RRT 3.1-3.2: 0.32%
  RRT 3.65: 0.08%
  Total Related Substances: 2%
  pH: 7.2
3 Month
  (DACH) Pt-diaquo (~RRT 0.3): 0.19%
  (DACH) Pt-monoaquo (~RRT 0.7): 0.73%
  Assay (Potency): 98.2%
  PT-112 Dimer (~RRT 4.0): 0.37%
  RRT 0.50: 0.08%
  RRT 0.58: 0.18%
  RRT 0.67: 0.06%
  RRT 3.1-3.2: 0.37%
  RRT 3.65: 0.11%
  Total Related Substances: 2%
  pH: 7.3
4 Month
  (DACH) Pt-diaquo (~RRT 0.3): 0.13%
  (DACH) Pt-monoaquo (~RRT 0.7): 1.05%
  Assay (Potency): 97.9%
  PT-112 Dimer (~RRT 4.0): 0.36%
  RRT 0.50: 0.09%
  RRT 0.58: 0.20%
  RRT 0.67: 0.07%
  RRT 3.1-3.2: 0.38%
  RRT 3.46: 0.05%
  RRT 3.65: 0.13%
  Total Related Substances: 2%
  pH: 7.1
6 Month
  (DACH) Pt-diaquo (~RRT 0.3): 0.15%
  (DACH) Pt-monoaquo (~RRT 0.7): 1.03%
  Assay (Potency): 97.5%
  PT-112 Dimer (~RRT 4.0): 0.37%
  RRT 0.50: 0.15%
  RRT 0.58: 0.21%
  RRT 0.67: 0.07%
  RRT 0.86: 0.05%
  RRT 3.1-3.2: 0.40%
  RRT 3.65: 0.24%
  RRT 4.97: 0.05%
  Total Related Substances: 3%
  pH: 7.2
6 Month, first value
  Particulate Matter (Light Obscuration): 20 particles particles per container
6 Month, second value
  Particulate Matter (Light Obscuration): 3 particles particles per container
9 Month
  (DACH) Pt-diaquo (~RRT 0.3): 0.16%
  (DACH) Pt-monoaquo (~RRT 0.7): 1.10%
  Assay (Potency): 96.8%
  PT-112 Dimer (~RRT 4.0): 0.39%
  RRT 0.50: 0.19%
  RRT 0.58: 0.27%
  RRT 0.67: 0.10%
  RRT 0.86: 0.05%
  RRT 3.1-3.2: 0.30%
  RRT 3.65: 0.39%
  RRT 4.97: 0.08%
  Total Related Substances: 3%
  pH: 7.2
12 Month
  (DACH) Pt-diaquo (~RRT 0.3): 0.18%
  (DACH) Pt-monoaquo (~RRT 0.7): 0.91%
  Assay (Potency): 96.8%
  PT-112 Dimer (~RRT 4.0): 0.33%
  RRT 0.41: 0.05%
  RRT 0.50: 0.26%
  RRT 0.58: 0.26%
  RRT 0.67: 0.13%
  RRT 0.86: 0.05%
  RRT 3.1-3.2: 0.44%
  RRT 3.65: 0.52%
  RRT 4.97: 0.20%
  Total Related Substances: 3%
  pH: 7.2
12 Month, first value
  Particulate Matter (Light Obscuration): 36 particles particles per container
12 Month, second value
  Particulate Matter (Light Obscuration): 2 particles particles per container
15 Month
  (DACH) Pt-diaquo (~RRT 0.3): 0.14%
  (DACH) Pt-monoaquo (~RRT 0.7): 0.84%
  Assay (Potency): 98.1%
  PT-112 Dimer (~RRT 4.0): 0.29%
  RRT 0.41: 0.07%
  RRT 0.50: 0.37%
  RRT 0.58: 0.26%
  RRT 0.67: 0.07%
  RRT 3.1-3.2: 0.41%
  RRT 3.65: 0.63%
  RRT 4.97: 0.28%
  Total Related Substances: 3%
  pH: 7.3
18 Month
  (DACH) Pt-diaquo (~RRT 0.3): 0.14%
  (DACH) Pt-monoaquo (~RRT 0.7): 1.04%
  Assay (Potency): 99.0%
  PT-112 Dimer (~RRT 4.0): 0.30%
  RRT 0.41: 0.06%
  RRT 0.50: 0.36%
  RRT 0.58: 0.29%
  RRT 0.67: 0.11%
  RRT 0.86: 0.14%
  RRT 3.1-3.2: 0.40%
  RRT 3.65: 0.75%
  RRT 4.97: 0.43%
  Total Related Substances: 4%
  pH: 7.2
24 Month
  (DACH) Pt-diaquo (~RRT 0.3): 0.15%
  (DACH) Pt-monoaquo (~RRT 0.7): 0.83%
  Assay (Potency): 97.5%
  PT-112 Dimer (~RRT 4.0): 0.36%
  RRT 0.41: 0.12%
  RRT 0.46: 0.10%
  RRT 0.50: 0.70%
  RRT 0.58: 0.17%
  RRT 0.67: 0.07%
  RRT 3.1-3.2: 0.41%
  RRT 3.46: 0.07%
  RRT 3.65: 1.24%
  RRT 4.97: 0.73%
  Total Related Substances: 5%
  pH: 7.2
24 Month, first value
  Particulate Matter (Light Obscuration): 81 particles particles per container
24 Month, second value
  Particulate Matter (Light Obscuration): 4 particles particles per container
Initial
  (DACH) Pt-diaquo (~RRT 0.3): 0.16%
  (DACH) Pt-monoaquo (~RRT 0.7): 0.98%
  Assay (Potency): 99.8%
  PT-112 Dimer (~RRT 4.0): 0.19%
  RRT 0.58: 0.13%
  RRT 0.67: 0.05%
  Total Related Substances: 2%
  pH: 7.2
Initial, first value
  Particulate Matter (Light Obscuration): 219 particles particles per container
Initial, second value
  Particulate Matter (Light Obscuration): 11 particles particles per container
